# Measured values taken from ChEMBL document CHEMBL5441456, “ASAP - SARS-CoV-2 nsp3 macrodomain dose response” (2024).
# pIC50: −log10 of the molar value. Where “and” joins values, the source holds several entries; their conditions need not be identical. Equal values may be shown once.
# Target: Replicase polyprotein 1ab (Severe acute respiratory syndrome coronavirus 2, UniProt P0DTD1)
# Experiment: Functional biochemical assay to identify treatments for viral infectious disease that targets SARS-COV-2 nsp3 macrodomain, whereby the mechanism of action displaces an ADP-Ribose modified peptide from the binding site. Utilizing a time-resolved fluorescence method to measure binding by reading the emitted fluorescence intensity in two wavelengths.
row,Compound,pIC50
1,O=C(Nc1ncnc2c(C(=O)NC3(c4ccccc4F)CCCCC3)csc12)NC1CC1,< 4.00
2,Cc1ccc2c(c1)C[C@@H](C(=O)N(C)CC[C@@H](Nc1ncnc3[nH]ccc13)C(C)C)S2,< 4.00
3,COc1cccc(CSC[C@@H](NC(=O)c2ncnc3[nH]ccc23)C(=O)O)c1,< 4.00
4,CC(=O)c1ccc(S(=O)(=O)Nc2cnc3[nH]ccc3c2)cc1,< 4.00
5,CS(=O)(=O)NC1CCC(Nc2ccc([C@@H](CC(=O)O)NC(=O)c3ncnc4[nH]ccc34)cc2)CC1 (stereo partly specified),4.13 and 4.07
6,O=C(O)c1cn(CCNC(=O)c2ncnc3[nH]ccc23)cn1,< 4.00
7,CS(=O)(=O)NC1CCC(Nc2ccc([C@@H](CC(=O)O)NC(=O)c3c[nH]c4ncncc34)cc2)CC1 (stereo partly specified),< 4.00
8,O=C(NCc1nc(-c2cc3c(N4CCCC5(CC5)C4)ncnc3[nH]2)c[nH]1)c1ccc(F)nc1,4.60 and 4.68
9,CC(C)n1nccc1S(=O)(=O)Nc1cnc2[nH]ccc2c1,< 4.00
10,Cn1cc([C@@H](Nc2ncnc3[nH]ccc23)c2ccc(F)cc2)cn1,< 4.00
11,C[C@@H](Cc1ccc(Cl)s1)Nc1ccc([C@@H](CC(=O)O)NC(=O)c2ncnc3[nH]ccc23)cc1,4.33
12,O=S(=O)(Cc1ccc(F)cc1)Nc1cnc2[nH]ccc2c1,< 4.00
13,O=C(N[C@@H](CCO)c1ccccc1F)c1ncnc2[nH]ccc12,< 4.00
14,COc1ccc(S(=O)(=O)Nc2cnc3[nH]ccc3c2)cc1C(N)=O,< 4.00
15,CC(C)[C@@H](Cc1ccc(F)cc1)NC(=O)c1ncnc2[nH]ccc12,< 4.00
16,N#CCc1cccc(S(=O)(=O)Nc2cnc3[nH]ccc3c2)c1,< 4.00
17,O=S(=O)(Cc1ccccc1F)Nc1cnc2[nH]ccc2c1,< 4.00
18,O=C(NCc1ccccc1F)c1ncnc2[nH]ccc12,< 4.00
19,NC(=O)C[C@@H](NC(=O)c1ncnc2[nH]ccc12)C1CCCCC1,< 4.00
20,CCc1cnn(C)c1NC(=O)c1ncnc2[nH]ccc12,< 4.00
21,CC(C)[C@@H](CCN(C)C(=O)c1cccc2cc(F)ccc12)Nc1ncnc2[nH]ccc12,< 4.00

row,Compound,pIC50
1,Cc1cc(C)cc(CS(=O)(=O)Nc2cnc3[nH]ccc3c2)c1,< 4.00
2,O=C(Nc1cccc2c(C(=O)N[C@@H](c3ccccc3)C(F)F)c[nH]c12)NC1CC1,< 4.00
3,C[C@H]1C[C@H]1c1nnc(Nc2ccc([C@@H](CC(=O)O)NC(=O)c3ncnc4[nH]ccc34)cc2)o1,5.10 and 5.22
4,Cc1ccc(C(=O)N2CCC(c3ccn4ncc(C(=O)N[C@@H]5CCC[C@@H]5C(=O)O)c4c3)CC2)cc1,4.68 and 4.66
5,O=C(Nc1ccc(C(=O)Nc2c(C(=O)O)sc3cnccc23)cc1)NC1CC1,< 4.00
6,O=C(Nc1ncnc2c(C(=O)Nc3ccccc3C(=O)N3CCCC3)csc12)NC1CC1,< 4.00
7,O=C(N[C@@H]1CCC[C@@H]1C(=O)O)c1cnn2ccc(C3CCN(C(=O)c4ccc(Cl)cc4)CC3)cc12,4.49 and 4.61
8,NC(=O)c1ccc(S(=O)(=O)Nc2cnc3[nH]ccc3c2)cc1,< 4.00
9,O=C(O)c1cn(CCCNC(=O)c2ncnc3[nH]ccc23)nn1,< 4.00
10,COc1ccc2c(c1)CCN(c1ncnc3[nH]ccc13)[C@H]2C(C)C,4.85 and 4.92
11,Cc1[nH]c2ncnc(NC(=O)C3CC(C(F)(F)F)C3)c2c1C (stereo unspecified),< 4.00
12,Cc1[nH]c2ncnc(NC(=O)c3ccc(Cl)cn3)c2c1C,< 4.00
13,O=C(NCc1ccc(F)cn1)c1ncnc2[nH]ccc12,< 4.00
14,CC(C)(C)n1cc([C@H]2N(c3ncnc4[nH]ccc34)CC23CCOCC3)cn1,< 4.00
15,CCc1coc(Nc2ccc([C@@H](CC(=O)O)NC(=O)c3c[nH]c4ncncc34)cc2)n1,4.15 and 4.12
16,CN(C)C(=O)c1cccc(S(=O)(=O)Nc2cnc3[nH]ccc3c2)c1,< 4.00
17,CC(C)[C@@H](CN1CCCCC1)Nc1ncnc2[nH]ccc12,< 4.00
18,C[C@@H](c1ccc(F)c(F)c1)N(C)C(=O)c1ncnc2[nH]ccc12,< 4.00
19,Cc1[nH]c2ncnc(NC(=O)C3(c4ccc(F)cc4)CCC3)c2c1C,4.71 and 4.66
20,C[C@H]1C[C@H]1c1nnc(Nc2ccc([C@@H](CC(=O)O)NC(=O)c3c[nH]c4ncncc34)cc2)o1,4.07 and 4.01
